In ChEMBL document CHEMBL1201862, “PubChem BioAssay data set” (2004):
Activity calls are given as the source filed them.

What was measured:
[1] = target: Intestinal-type alkaline phosphatase (Homo sapiens, UniProt P09923); assay: activation of human intestinal alkaline phosphatase – biochemical, dose response (AID 488873); assay type: functional
[2] = target: Intestinal-type alkaline phosphatase (Mus musculus, UniProt P24822); assay: PubChem AID 488785; assay type: functional
[3] = target: T1, Alkaline phosphatase, tissue-nonspecific isozyme (Homo sapiens, UniProt P05186); assay: TNAP enzyme inhibition by screening hits, dose response, selectivity assay for mouse IAP inhibitor project, biochemical, human TNAP, uHTS hits (AID 488906); assay type: functional
T1 sequence (P05186 whole entry): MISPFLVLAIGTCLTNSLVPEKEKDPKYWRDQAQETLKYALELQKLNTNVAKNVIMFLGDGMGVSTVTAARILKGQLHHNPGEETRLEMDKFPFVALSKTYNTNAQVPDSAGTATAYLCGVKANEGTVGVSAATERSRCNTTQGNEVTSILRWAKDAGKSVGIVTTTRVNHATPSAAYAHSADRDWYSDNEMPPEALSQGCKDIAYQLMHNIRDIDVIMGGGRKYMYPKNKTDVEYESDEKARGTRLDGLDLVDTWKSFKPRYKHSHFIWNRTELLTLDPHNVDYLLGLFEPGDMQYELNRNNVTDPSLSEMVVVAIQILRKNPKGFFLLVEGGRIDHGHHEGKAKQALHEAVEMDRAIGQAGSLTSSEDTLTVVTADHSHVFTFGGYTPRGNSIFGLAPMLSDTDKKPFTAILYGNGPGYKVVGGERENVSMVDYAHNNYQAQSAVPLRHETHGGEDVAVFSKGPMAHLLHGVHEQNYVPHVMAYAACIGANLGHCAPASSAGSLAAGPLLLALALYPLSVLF

[4] = target: Troponin, cardiac muscle (Homo sapiens, UniProt P19429+P45379+P63316); assay: Fluorescence-based biochemical high throughput dose response assay for activators of the calcium sensitivity of cardiac Regulated Thin Filaments (RTF). [Related pubchem assays (depositor defined):AID493008, AID493018, AID504382, AID504383]; assay type: protein-complex assay
[5] = target: Peroxisome proliferator-activated receptor gamma/Nuclear receptor coactivator 2 (Homo sapiens, UniProt P37231); assay type: functional;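 further: agonist potency for raising coactivator recruitment to the receptor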
[6] = target: Peroxisome proliferator-activated receptor gamma/Nuclear receptor coactivator 1 (Homo sapiens, UniProt P37231); assay type: functional;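 further: agonist potency as compounds enhance coactivator SRC-1 recruitment to PPARgamma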
Sequence of Peroxisome proliferator-activated receptor gamma/Nuclear receptor coactivator 1 (P37231 whole entry): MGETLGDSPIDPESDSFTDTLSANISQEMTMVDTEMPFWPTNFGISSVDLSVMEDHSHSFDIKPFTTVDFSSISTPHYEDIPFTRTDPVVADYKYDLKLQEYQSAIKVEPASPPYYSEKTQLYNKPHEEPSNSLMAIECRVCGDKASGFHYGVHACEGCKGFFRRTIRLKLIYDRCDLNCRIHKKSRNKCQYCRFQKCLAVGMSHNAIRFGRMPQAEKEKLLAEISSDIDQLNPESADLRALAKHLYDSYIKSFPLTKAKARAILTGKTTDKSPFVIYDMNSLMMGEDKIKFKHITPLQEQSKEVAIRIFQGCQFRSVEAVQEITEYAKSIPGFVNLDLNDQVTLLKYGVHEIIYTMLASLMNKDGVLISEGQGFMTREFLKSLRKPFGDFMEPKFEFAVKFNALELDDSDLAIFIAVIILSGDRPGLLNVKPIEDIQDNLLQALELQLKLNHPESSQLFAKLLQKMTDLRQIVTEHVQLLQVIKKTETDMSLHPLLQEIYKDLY
Sequence of Peroxisome proliferator-activated receptor gamma/Nuclear receptor coactivator 1 (Q15788 whole entry, further chain): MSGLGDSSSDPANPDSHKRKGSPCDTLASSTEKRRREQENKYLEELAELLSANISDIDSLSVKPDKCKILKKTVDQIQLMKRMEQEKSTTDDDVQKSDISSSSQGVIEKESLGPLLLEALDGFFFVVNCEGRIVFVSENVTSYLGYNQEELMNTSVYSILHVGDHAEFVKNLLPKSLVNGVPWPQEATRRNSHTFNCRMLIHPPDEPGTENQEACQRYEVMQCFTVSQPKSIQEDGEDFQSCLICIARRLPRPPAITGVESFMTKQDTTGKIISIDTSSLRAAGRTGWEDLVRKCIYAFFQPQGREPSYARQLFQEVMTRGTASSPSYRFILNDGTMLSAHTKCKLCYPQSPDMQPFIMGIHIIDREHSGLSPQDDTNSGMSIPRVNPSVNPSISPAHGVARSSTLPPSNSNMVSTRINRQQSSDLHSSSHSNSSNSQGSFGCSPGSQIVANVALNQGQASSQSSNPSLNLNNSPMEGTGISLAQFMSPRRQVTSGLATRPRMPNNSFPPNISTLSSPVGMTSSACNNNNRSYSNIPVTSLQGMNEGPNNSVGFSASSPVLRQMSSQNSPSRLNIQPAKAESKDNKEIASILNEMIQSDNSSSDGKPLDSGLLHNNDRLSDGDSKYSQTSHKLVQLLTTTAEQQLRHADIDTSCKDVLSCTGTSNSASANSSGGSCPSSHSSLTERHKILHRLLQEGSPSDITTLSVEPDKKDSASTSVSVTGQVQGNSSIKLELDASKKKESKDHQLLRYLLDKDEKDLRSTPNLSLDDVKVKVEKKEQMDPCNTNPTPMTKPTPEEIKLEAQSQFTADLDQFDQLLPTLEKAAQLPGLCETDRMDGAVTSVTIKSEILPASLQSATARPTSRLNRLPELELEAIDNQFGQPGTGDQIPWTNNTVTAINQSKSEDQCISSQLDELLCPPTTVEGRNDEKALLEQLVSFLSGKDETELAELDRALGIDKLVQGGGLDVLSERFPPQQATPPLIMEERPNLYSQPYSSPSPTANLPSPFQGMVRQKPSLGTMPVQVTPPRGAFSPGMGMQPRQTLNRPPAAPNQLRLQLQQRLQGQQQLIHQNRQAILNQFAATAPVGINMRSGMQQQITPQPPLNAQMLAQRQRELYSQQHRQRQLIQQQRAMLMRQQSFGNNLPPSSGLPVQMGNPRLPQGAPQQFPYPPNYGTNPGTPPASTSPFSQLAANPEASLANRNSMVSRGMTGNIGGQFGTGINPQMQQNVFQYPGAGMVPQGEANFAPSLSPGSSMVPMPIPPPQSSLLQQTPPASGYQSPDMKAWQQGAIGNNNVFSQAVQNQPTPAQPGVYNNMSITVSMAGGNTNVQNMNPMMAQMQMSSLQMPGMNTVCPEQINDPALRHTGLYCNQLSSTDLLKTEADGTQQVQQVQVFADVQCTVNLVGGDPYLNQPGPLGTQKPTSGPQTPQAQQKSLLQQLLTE

[7] = target: T2, Dual specificity protein phosphatase 3 (Homo sapiens, UniProt P51452); assay: VHR1 phosphatase inhibitors, primary screen, biochemical, absorbance, uHTS (AID 1654)
T2 sequence (P51452 whole entry): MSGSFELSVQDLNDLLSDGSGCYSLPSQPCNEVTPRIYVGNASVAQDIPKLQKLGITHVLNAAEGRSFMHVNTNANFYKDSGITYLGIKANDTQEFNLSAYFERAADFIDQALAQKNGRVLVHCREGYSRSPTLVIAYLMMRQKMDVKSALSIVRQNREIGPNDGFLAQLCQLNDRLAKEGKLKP

[8] = target: Peroxisome proliferator-activated receptor gamma/Nuclear receptor coactivator 3 (Homo sapiens, UniProt P37231); assay type: functional;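 further: agonist potency for raising coactivator recruitment to the receptor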
Sequence of Peroxisome proliferator-activated receptor gamma/Nuclear receptor coactivator 3 (P37231 whole entry): as the sequence (P37231 whole entry) above
Sequence of Peroxisome proliferator-activated receptor gamma/Nuclear receptor coactivator 3 (Q9Y6Q9 whole entry, further chain): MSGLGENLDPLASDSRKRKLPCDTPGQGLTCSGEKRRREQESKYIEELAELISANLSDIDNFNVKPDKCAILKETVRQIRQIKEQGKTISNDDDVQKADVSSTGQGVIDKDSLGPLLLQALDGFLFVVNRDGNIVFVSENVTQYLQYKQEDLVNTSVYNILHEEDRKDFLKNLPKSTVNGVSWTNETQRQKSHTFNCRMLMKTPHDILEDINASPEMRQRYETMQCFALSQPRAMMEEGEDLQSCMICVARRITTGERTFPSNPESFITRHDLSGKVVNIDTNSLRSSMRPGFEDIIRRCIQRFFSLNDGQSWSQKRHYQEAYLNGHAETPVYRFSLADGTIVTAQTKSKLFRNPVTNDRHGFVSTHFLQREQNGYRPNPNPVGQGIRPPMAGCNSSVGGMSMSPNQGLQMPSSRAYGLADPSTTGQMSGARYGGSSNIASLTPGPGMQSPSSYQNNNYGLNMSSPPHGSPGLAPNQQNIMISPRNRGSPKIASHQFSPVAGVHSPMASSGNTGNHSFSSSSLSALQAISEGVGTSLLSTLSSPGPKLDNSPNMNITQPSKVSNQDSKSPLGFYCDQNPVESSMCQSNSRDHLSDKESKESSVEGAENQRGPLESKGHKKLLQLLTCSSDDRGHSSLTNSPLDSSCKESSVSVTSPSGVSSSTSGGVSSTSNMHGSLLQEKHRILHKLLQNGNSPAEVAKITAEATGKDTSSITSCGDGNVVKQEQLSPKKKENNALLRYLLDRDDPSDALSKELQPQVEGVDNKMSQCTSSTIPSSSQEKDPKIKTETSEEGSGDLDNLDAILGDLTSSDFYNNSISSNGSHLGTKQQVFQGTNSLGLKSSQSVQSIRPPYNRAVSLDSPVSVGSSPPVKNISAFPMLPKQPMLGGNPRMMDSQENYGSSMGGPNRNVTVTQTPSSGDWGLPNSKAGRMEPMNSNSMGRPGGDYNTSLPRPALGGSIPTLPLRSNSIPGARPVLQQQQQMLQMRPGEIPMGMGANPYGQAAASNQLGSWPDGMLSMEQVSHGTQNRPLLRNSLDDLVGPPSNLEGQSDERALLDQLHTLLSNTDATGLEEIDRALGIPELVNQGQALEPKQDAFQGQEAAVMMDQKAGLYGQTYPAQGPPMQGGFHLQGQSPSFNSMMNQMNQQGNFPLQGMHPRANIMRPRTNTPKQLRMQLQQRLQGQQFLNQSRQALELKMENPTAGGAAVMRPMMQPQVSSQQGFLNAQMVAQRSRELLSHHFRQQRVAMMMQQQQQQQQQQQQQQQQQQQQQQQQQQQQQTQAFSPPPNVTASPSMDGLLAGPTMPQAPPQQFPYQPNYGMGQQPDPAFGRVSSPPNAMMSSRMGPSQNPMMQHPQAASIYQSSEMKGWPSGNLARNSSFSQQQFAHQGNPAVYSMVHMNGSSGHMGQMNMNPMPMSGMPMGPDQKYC

[9] = target: T2, Dual specificity protein phosphatase 3; assay: VHR1 phosphatase inhibitors, biochemical (AID 1878)
[10] = target: T3, Dual specificity protein phosphatase 6 (Rattus norvegicus, UniProt Q64346); assay: inhibition of rat DUSP6 enzyme activity – biochemical, in vitro, primary screen (AID 425)
T3 sequence (Q64346 whole entry): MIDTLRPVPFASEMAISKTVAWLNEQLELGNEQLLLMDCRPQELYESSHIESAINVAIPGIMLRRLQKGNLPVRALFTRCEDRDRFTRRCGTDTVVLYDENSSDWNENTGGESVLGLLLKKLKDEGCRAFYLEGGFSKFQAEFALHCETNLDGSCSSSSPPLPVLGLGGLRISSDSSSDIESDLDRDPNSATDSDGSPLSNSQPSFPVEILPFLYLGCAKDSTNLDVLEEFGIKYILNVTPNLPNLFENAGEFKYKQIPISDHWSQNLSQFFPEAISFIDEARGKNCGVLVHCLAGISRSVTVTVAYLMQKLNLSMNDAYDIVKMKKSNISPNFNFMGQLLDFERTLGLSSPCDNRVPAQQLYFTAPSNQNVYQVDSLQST

[11] = target: DNA dC->dU-editing enzyme APOBEC-3A (Homo sapiens, UniProt P31941); assay: A3A deaminase inhibition for selectivity – biochemical, dose response (AID 504722); assay type: functional
[12] = target: Glucose-6-phosphate 1-dehydrogenase (Homo sapiens, UniProt P11413); assay: inhibition of Homo sapiens G6PD, dose series – biochemical, fluorescence, selectivity assay for P. falciparum G6PD inhibitor project, dose response (AID 504792); assay type: functional
Sequence of Glucose-6-phosphate 1-dehydrogenase (P11413 whole entry): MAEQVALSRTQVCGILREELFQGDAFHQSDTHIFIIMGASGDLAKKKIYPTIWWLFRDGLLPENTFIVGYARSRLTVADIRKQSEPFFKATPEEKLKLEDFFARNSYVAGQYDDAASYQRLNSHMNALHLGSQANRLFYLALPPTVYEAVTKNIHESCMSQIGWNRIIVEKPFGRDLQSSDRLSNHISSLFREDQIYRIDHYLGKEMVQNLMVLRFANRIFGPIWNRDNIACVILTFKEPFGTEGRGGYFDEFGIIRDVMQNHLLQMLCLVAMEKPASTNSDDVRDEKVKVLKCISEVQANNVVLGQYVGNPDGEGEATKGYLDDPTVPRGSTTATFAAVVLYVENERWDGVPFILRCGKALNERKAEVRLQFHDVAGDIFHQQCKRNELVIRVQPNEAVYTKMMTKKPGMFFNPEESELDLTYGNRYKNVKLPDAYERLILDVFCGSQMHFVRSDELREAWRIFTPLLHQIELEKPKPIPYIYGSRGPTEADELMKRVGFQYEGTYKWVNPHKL

[13] = target: T2, Dual specificity protein phosphatase 3; assay: SAR VHR1 absorbance Assay for In Vitro dose response studies. [Related pubchem assays (depositor defined):AID1654, AID1661, AID1878, AID1992, AID2004]
[14] = target: T2, Dual specificity protein phosphatase 3; assay: SAR VHR1 Fluorescent Assay for In Vitro dose response studies. [Related pubchem assays (depositor defined):AID1654, AID1661, AID1878, AID1992, AID2004, AID2070, AID2085]; assay type: functional
[15] = target: T4, Tyrosine-protein phosphatase non-receptor type 7 (Homo sapiens, UniProt P35236); assay: redox-active compounds inhibiting HePTP phosphatase – biochemical, fluorescence, mechanism study (AID 2068); assay type: functional
T4 sequence (P35236 whole entry): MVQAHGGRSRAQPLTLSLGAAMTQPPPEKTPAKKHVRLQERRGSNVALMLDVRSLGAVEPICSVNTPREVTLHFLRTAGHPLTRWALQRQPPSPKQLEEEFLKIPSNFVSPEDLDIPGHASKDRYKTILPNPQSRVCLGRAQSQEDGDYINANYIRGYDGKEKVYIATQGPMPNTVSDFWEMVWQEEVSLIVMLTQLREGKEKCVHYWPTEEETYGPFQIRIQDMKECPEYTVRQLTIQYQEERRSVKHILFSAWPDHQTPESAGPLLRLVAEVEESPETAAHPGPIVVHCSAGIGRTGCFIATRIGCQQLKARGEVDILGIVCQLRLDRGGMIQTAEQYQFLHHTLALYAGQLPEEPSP

[16] = target: T3, Dual specificity protein phosphatase 6; assay: SAR analysis of inhibitors of MKP-3 - Set 2. [Related pubchem assays (depositor defined):AID1055, AID1661, AID425, AID553, AID566]; assay type: functional
[17] = target: DNA dC->dU-editing enzyme APOBEC-3G (Homo sapiens, UniProt Q9HC16); assay: Dose Response confirmation of small molecule APOBEC3G DNA Deaminase Inhibitors via a fluorescence-based single-stranded DNA deaminase assay. [Related pubchem assays (depositor defined):AID493012, AID493028]; assay type: functional
Sequence of DNA dC->dU-editing enzyme APOBEC-3G (Q9HC16 whole entry): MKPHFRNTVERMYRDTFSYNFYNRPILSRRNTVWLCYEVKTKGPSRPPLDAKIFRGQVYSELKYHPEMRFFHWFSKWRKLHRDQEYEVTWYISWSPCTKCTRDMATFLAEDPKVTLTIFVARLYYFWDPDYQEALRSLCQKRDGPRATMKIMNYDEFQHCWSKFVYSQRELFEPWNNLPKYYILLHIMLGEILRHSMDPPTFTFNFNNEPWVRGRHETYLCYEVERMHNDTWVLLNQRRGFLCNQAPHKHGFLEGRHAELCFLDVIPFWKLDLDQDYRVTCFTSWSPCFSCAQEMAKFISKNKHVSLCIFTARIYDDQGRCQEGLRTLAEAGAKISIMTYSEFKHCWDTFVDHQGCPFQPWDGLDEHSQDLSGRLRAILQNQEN

[18] = target: T4, Tyrosine-protein phosphatase non-receptor type 7; assay: SAR analysis of chemical inhibitors of HePTP using a Fluorescent assay - Set 2. [Related pubchem assays (depositor defined):AID1059, AID1077, AID1661, AID2085, AID521]; assay type: functional
[19] = target: T2, Dual specificity protein phosphatase 3; assay: SAR VHR1 Fluorescent Assay for In Vitro dose response studies Set 2. [Related pubchem assays (depositor defined):AID1654, AID1661, AID1878]; assay type: functional
[20] = target: T3, Dual specificity protein phosphatase 6; assay type: functional
[21] = target: Kappa-type opioid receptor (Homo sapiens, UniProt P41145); assay: SAR analysis of small molecule agonists of the kappa opioid receptor via a luminescent beta-arrestin assay - Set 3. [Related pubchem assays (depositor defined):AID1777, AID1785, AID1786, AID1966, AID2133, AID2136, AID2284, AID2500]; assay type: functional

SMILES: CN(CC(=O)Nc1cccc(Cl)c1)S(=O)(=O)c1ccc2[nH]c(=O)oc2c1
- EC50 [1]: > 100 µM (inactive)
- IC50 [2]: 9.88 µM (active)
- IC50 [3]: 7.87 µM (active)

SMILES: C=CCN1C(=O)c2ccccc2NC1c1cc(Br)cs1 (stereo unspecified)
- EC50 [4]: > 71.5 µM (inactive)

SMILES: Cc1ccc(-n2c(N)c(C(=O)N3CCN(C)CC3)sc2=S)cc1
- EC50 [5]: > 79.4 µM (not active)
- EC50 [6]: > 79.4 µM (not active)
- IC50 [7]: 2.33 µM (active)
- EC50 [8]: > 79.4 µM (not active)
- IC50 [9]: 5.73 µM (active)
- IC50 [10]: > 158 µM (not active)
- IC50 [11]: > 100 µM (inactive)
- IC50 [12]: > 80 µM (inactive)
- IC50 [13]: 0.25 µM (active)
- IC50 [14]: > 99 µM (inactive)
- IC50 [15]: 0.0144 µM (active)
- IC50 [16]: > 100 µM (inactive)
- IC50 [17]: 7.99 µM (active)
- IC50 [18]: 0.455 µM (active)
- IC50 [19]: 0.402 µM (active)
- IC50 [20]: > 99 µM (inactive)

SMILES: FC(F)(F)c1cc(CSc2nnc(-c3ccncc3)n2Cc2ccco2)ccc1Cl
- EC50 [21]: > 20 µM (inactive)
